From ChEMBL document CHEMBL3046511, “Controlling Efficacy of Strobilurin Derivatives against Wheat Powdery Mildew and Eyespot” (J Pestic Sci, 2002)
≈ marks a conversion by molar mass, not a printed value.

Key:
Podosphaera fuliginea [1] = experiment: Fungicidal activity against Podosphaera fuliginea in cucumber cotyledon assessed as control of powdery mildew measured as width inhibition at 7.8 ppm treated 24 hr inoculation at 22 +/- 2 degC measured after 10 days by vapour-phase activity test; format: functional
Oculimacula yallundae [2] = experiment: Fungicidal activity against W-type Oculimacula yallundae assessed as inhibition of mycelial growth at 20 degC for 14 days in presence of 50 ppm flovone; format: functional, organism-based; conditions: for MIC: Oculimacula yallundae, 336 h
Oculimacula yallundae [3] = experiment: Fungicidal activity against W-type Oculimacula yallundae assessed as inhibition of mycelial growth at 20 degC for 14 days; format: functional, organism-based; conditions: for MIC: Oculimacula yallundae, 336 h
Podosphaera fuliginea [4] = experiment: Fungicidal activity against Podosphaera fuliginea in cucumber cotyledon assessed as control of powdery mildew measured as length inhibition at 7.8 ppm treated 24 hr inoculation at 22 +/- 2 degC measured after 10 days by vapour-phase activity test; format: functional
[5] = tested on: Blumeria graminis f. sp. tritici; experiment: Fungicidal activity against Blumeria graminis f. sp. tritici in 2 weeks old wheat seedlings assessed as control of powdery mildew pretreated 24 hr before by foliar application at 22 +/- 2 degC under greenhouse and leaf area measured after 10 days of inoculation; format: functional, organism-based
[6] = tested on: Blumeria graminis f. sp. tritici; experiment: Fungicidal activity against Blumeria graminis f. sp. tritici in 2 weeks old wheat seedlings assessed as control of powdery mildew at 0.06 ppm pretreated 24 hr before by foliar application at 22 +/- 2 degC under greenhouse and leaf area measured after 10 days of inoculation; format: functional
[7] = tested on: Blumeria graminis f. sp. tritici; experiment: Fungicidal activity against Blumeria graminis f. sp. tritici in 2 weeks old wheat seedlings assessed as control of powdery mildew at 0.125 ppm pretreated 24 hr before by foliar application at 22 +/- 2 degC under greenhouse and leaf area measured after 10 days of inoculation; format: functional
[8] = tested on: Blumeria graminis f. sp. tritici; experiment: Fungicidal activity against Blumeria graminis f. sp. tritici in 2 weeks old wheat seedlings assessed as control of powdery mildew at 0.5 ppm pretreated 24 hr before by foliar application at 22 +/- 2 degC under greenhouse and leaf area measured after 10 days of inoculation; format: functional
[9] = tested on: Blumeria graminis f. sp. tritici; experiment: Fungicidal activity against Blumeria graminis f. sp. tritici in 2 weeks old wheat seedlings assessed as control of powdery mildew at 2 ppm pretreated 24 hr before by foliar application at 22 +/- 2 degC under greenhouse and leaf area measured after 10 days of inoculation; format: functional
[10] = tested on: Blumeria graminis f. sp. tritici; experiment: Fungicidal activity against Blumeria graminis f. sp. tritici in 2 weeks old wheat seedlings assessed as control of powdery mildew at 7.8 ppm pretreated 24 hr before by foliar application at 22 +/- 2 degC under greenhouse and leaf area measured after 10 days of inoculation; format: functional
[11] = tested on: Blumeria graminis f. sp. tritici; experiment: Fungicidal activity against Blumeria graminis f. sp. tritici in 2 weeks old wheat seedlings assessed as control of powdery mildew at 31.3 ppm pretreated 24 hr before by foliar application at 22 +/- 2 degC under greenhouse and leaf area measured after 10 days of inoculation; format: functional
[12] = tested on: Blumeria graminis f. sp. tritici; experiment: Fungicidal activity against Blumeria graminis f. sp. tritici in 2 weeks old wheat seedlings assessed as control of powdery mildew at 125 ppm pretreated 24 hr before by foliar application at 22 +/- 2 degC under greenhouse and leaf area measured after 10 days of inoculation; format: functional
Podosphaera fuliginea [13] = experiment: Fungicidal activity against Podosphaera fuliginea in cucumber cotyledon assessed as control of powdery mildew measured as width inhibition at 2 ppm treated 24 hr inoculation at 22 +/- 2 degC measured after 10 days by vapour-phase activity test; format: functional
Podosphaera fuliginea [14] = experiment: Fungicidal activity against Podosphaera fuliginea in cucumber cotyledon assessed as control of powdery mildew measured as length inhibition at 2 ppm treated 24 hr inoculation at 22 +/- 2 degC measured after 10 days by vapour-phase activity test; format: functional

SMILES	INH (Podosphaera fuliginea [1]) [mm]	EC50 (Oculimacula yallundae [2]) [ppm]	MIC (Oculimacula yallundae [2]) [µg/mL]	EC50 (Oculimacula yallundae [3]) [ppm]	MIC (Oculimacula yallundae [3]) [µg/mL]	INH (Podosphaera fuliginea [4]) [mm]	EC50 [5] [ppm]	Activity [6] [%]	Activity [7] [%]	Activity [8] [%]	Activity [9] [%]	Activity [10] [%]	Activity [11] [%]	Activity [12] [%]	INH (Podosphaera fuliginea [13]) [mm]	INH (Podosphaera fuliginea [14]) [mm]
CNC(=O)/C(=N/OC)c1ccccc1Oc1ncc(Cl)cc1C(F)(F)F	10.7	0.08	1	0.33	< 125	8.9	0.05	50	60	89	96	100	100	–	–	–
CNC(=O)/C(=N/OC)c1ccccc1Oc1cc(C)ccc1C	–	0.03	1	0.13	< 125	–	0.07	22	79	94	98	100	100	–	–	–
CO/C=C(/C(=O)OC)c1ccccc1Oc1cc(Oc2ccccc2C#N)ncn1 [AZOXYSTROBIN]	–	0.41	25	3.2	< 125	–	1.39	–	5	35	64	85	87	95	–	–
OC(c1ccc(Cl)cc1)(c1cncnc1)c1ccccc1Cl (stereo unspecified) [FENARIMOL]	–	–	–	1.02	25 (≈ 75.5 µM)	–	0.58	–	0	50	84	94	98	98	–	–
CO/N=C(/C(=O)OC)c1ccccc1COc1ccccc1C [KRESOXIM-METHYL]	<20	0.11	5	0.79	< 125	<20	0.95	–	14	39	68	86	92	100	13.5	12.7
CCCN(CCOc1c(Cl)cc(Cl)cc1Cl)C(=O)n1ccnc1 [PROCHLORAZ]	–	–	–	0.06	5 (≈ 13.3 µM)	–	3.39	–	0	23	57	70	70	92	–	–
COC(=O)NC(=S)Nc1ccccc1NC(=S)NC(=O)OC [THIOPHANATE METHYL]	–	–	–	1.18	25 (≈ 73 µM)	–	–	–	–	–	–	–	–	–	–	–
CC(C)(C)C(=O)C(Oc1ccc(Cl)cc1)n1cncn1 (stereo unspecified) [TRIADIMEFON]	<20	–	–	7.81	< 125	<20	1.6	–	0	30	57	82	94	99	–	–
